According to publication PMC5880951, “Pentocin MQ1: A Novel, Broad-Spectrum, Pore-Forming Bacteriocin From Lactobacillus pentosus CS2 With Quorum Sensing Regulatory Mechanism and Biopreservative Potential” (Frontiers in Microbiology, 2018):

How the values were obtained:
[1] = tested on: Micrococcus luteus ATCC 10240; assay: Membrane permeabilization (pore formation), SYTOX green; format: cell-based; conditions: 5 μM SYTOX green, pentocin MQ1 at 5 X MIC, nisin as positive control, Real-Time PCR read-out, triplicates
Procedure: Pore formation assay was done to understand the mechanism of action of pentocinMQ1. M. luteus was grown in Mueller-Hinton broth until OD600nm = 0.45 after which 5 μM SYTOX green dye (Invitrogen, USA) was added. Ninety microliters of stained bacteria was added to MicroAmp Fast Optical 96-well reaction plate (Applied Biosystems, Life Technologies, USA). After a stable line base was attained, 10 μl of pentocin MQ1 (5 X MIC) was added to the stained bacteria. Sodium phosphate buffer (5 mM) and nisin (Sigma-Aldrich, USA) were added to stained bacteria in different wells to serve as negative and positive controls, respectively. Experiments were done in triplicates. Fluorescence as a result of binding of SYTOX green to leaked intracellular DNA was monitored using Real-Time PCR (Applied Biosystems, USA).

[2] = tested on: M. luteus; conditions: within 30 min; ref Barbour et al., 2016; cited from earlier work
Source text: The two main modes of action of LAB bacteriocins against Gram-positive bacteria are pore formation and inhibition of cell wall synthesis (Cotter et al., [2013]). […] This implies that pore formation is a more rapid killing mechanism.

[3] = tested on: Bacillus spp.; conditions: ref Mota-Meira et al., 2000; cited from earlier work
Procedure: (§1) Pentocin MQ1 was strongly inhibitory against L. monocytogenes NCTC 10890, M. luteus ATCC 10240, and B. cereus ATCC14579 at micromolar concentrations. High activity at low concentration is a desirable property of natural biopreservatives (Bali et al., [2016]). MIC-values for nisin A against Micrococcus spp. and Bacillus spp. (Mota-Meira et al., [2000]) are lower than that of pentocin MQ1. […] After 120 min ...

[4] = tested on: Micrococcus spp.; conditions: ref Mota-Meira et al., 2000; cited from earlier work
Procedure: as §1

| Substance | fluorescence intensity (SYTOX green binding to leaked intracellular DNA) [1] | increase in fluorescence [2] | MIC compared with pentocin MQ1 [3] | MIC compared with pentocin MQ1 [4] |
| --- | --- | --- | --- | --- |
| nisin | higher fluorescence intensity | caused an increase in fluorescence intensity | – | – |
| nisin A | – | – | lower | lower |
